Results: patent US8609173B2, “Compositions comprising sweetness enhancers and methods of making them” (Senomyx Inc., priority 2008, dated 2013)
≈ marks a conversion by molar mass, not a printed value.

Experiments:
External panelists = test: Paired comparison test (2-alternative forced choice), Example 3B, sucrose; type: in vivo, Human; conditions: 9% sucrose chosen, vs 6% Sucrose + 10 ppm (35.29 μM) compound; n = 28
Method: Several types of sensory tests were used to determine the efficacy of 5-(neopentyloxy)-1H-benzo[c][1,2,6]thiadiazin-4-amino-2,2-dioxide in enhancing sweetness of sucrose. Two types of tests were conducted: • 1) Sensory scaling tests were performed using a 15-point percent sucrose equivalence scale for sweetness in order to evaluate sweetness enhancement 5-(neopentyloxy)-1H-benzo[c][1,2,6]thiadiazin-4-amino-2,2-dioxide in sucrose, or in fructose. • 2) Paired comparison tests (2-alternative forced choice difference tests) were used to determine sweetness equivalence for solutions of sucrose vs. 5-(neopentyloxy)-1H-benzo[c][1,2,6]thiadiazin-4-amino-2,2-dioxide or buffer vs. 5-(neopentyloxy)-1H-benzo[c][1,2,6]thiadiazin-4-amino-2,2-dioxide. Stimuli:
Panelists performed 2 directional paired comparison tests to determine which sample was sweeter. The test compared the sweetness intensity of 9% sucrose to that of 6% sucrose+10 ppm (35.29 μM) 5-(neopentyloxy)-1H-benzo[c][…]thiadiazin-4-amino-2,2-dioxide. Panelists were also to comment on the difficulty of the test and if any off tastes were perceived. Samples were completely randomized.

[1] = Preparation of liquid solutions in food grade solvents (dissolution trials, Table 3); type: physicochemical; conditions: for solubility rate: propylene glycol
Method: Liquid compositions of 3-(4-amino-2,2-dioxide-1H-benzo[c][1,2,6]thiadiazin-5-yloxy)-2′,2′-dimethyl-N-propylpropanamide were prepared using a variety of different solvents (Table 3). It was discovered by increasing the pH of the solution with alkaline substance, such as alkali metal salt, one can increase the concentration level of 3-(4-amino-2,2-dioxide-1H-benzo[c][1,2,6]thiadiazin-5-yloxy)-2′,2′-dimethyl-N-propylpropanamide in solutions. Examples of suitable alkali metal salt include, but are not limited to, sodium bicarbonate, sodium carbonate, sodium hydroxide, and the like. In propylene glycol, sodium bicarbonate will raise pH from 7.8 to 8.5; the solubility rate of 3-(4-amino-2,2-dioxide-1H-benzo[c][1,2,6]thiadiazin-5-yloxy)-2′,2′-dimethyl-N-propylpropanamide will be increased from 0.5% to 1.0%.
• 1. Weigh a desired amount of compound and sodium bicarbonate. • 2. Calculate the volume of food grade solvent(s) (water, ethyl alcohol, isopropyl alcohol, butylenes glycol, propylene glycol, triacetin, glycerol, vegetable oils (soy, corn, peanut, persic, cottonseed, sesame), olive oil, fractionated coconut oil, neobee, tributyrin, mono and diglycerides, ethyl lactate, ethyl levulinate, butyl stearate, triethyl citrate, diethyl succinate, diethyl malonate, acetic acid, lactic acid, phosphoric acid, benzyl alcohol, tetrahydrofurfural alcohol, D-limonene, γ-valerolactone, butyrolactone, polyethylene glycol sorbitan monostearate (Tween®), etc. to add to the dry, weighed out compound to make a concentration of 1,000-50,000 ppm (0.1-5%). • 3. Pre heat the appropriate amount of solvent to 100 to 200° F. while stirring at 1,100 rpm on a hot plate using a stir bar. • 4. Add pre-weighed compound to heated solvent (when temperature reaches 100 to 200° F.). • 5. Continue heating solvent and inspect to insure complete dissolution, return to the hot plate if necessary. Preparation Procedure for Water as a Solvent:
Preparation Procedure of the Liquid Diluted Form (without Heat): • 1. Weigh desire amount of compound. • 2. Calculate the volume of food grade solvent(s) (water, ethanol, propylene glycol, triacetin, glycerol, neobee, DI water, phosphoric acid, lactic acid, olive oil) to add to the dry, weighed out compound to make a concentration of 1,000-50,000 ppm (0.1-5%). • 3. Stir solvent at 1,100 rpm on a hot plate using a stir bar. • 4. Add pre-weighed compound to solvent. • 5. Continue stirring and inspect to insure complete dissolution, return to the hot plate if necessary.

Panelists = test: Paired comparison taste test, strawberry yogurt; type: in vivo, Human
Method: Two strawberry yogurt compositions were prepared and then mixed with plain, nonfat yogurt. One strawberry fruit composition was sweetened with a mixture of sucrose and fructose, and a second strawberry fruit composition was sweetened with ⅓ less sucrose and 3 ppm of 3-(4-amino-2,2-dioxide-1H-benzo[c][1,2,6]thiadiazin-5-yloxy)-2′,2′-dimethyl-N-propylpropanamide. The compositions of the two fruit compositions are as follows:
Panelists evaluated two yogurt compositions in a paired comparison taste test procedure and were instructed to select the sweeter of the two samples. They perform a total of three paired comparison tests each containing the following samples: Strawberry Yogurt with 100% Sucrose vs. Strawberry Yogurt with 66.6% Sucrose+3 ppm (8.47 μM) 3-(4-amino-2,2-dioxide-1H-benzo[c][1,2,6]thiadiazin-5-yloxy)-2′,2′-dimethyl-N-propylpropanamide.
Strawberry Yogurt Preparation: 1000 g batches of finished strawberry yogurt was made by adding 16% (by weight) strawberry fruit prep to 84% (by weight) plain nonfat yogurt and mixing with a wire whip until homogenous, a minimum of five minutes. The Compound A was dissolved into a 0.10% concentration level in propylene glycol and then added to the strawberry yogurt and mixed with a wire whip until homogenous, about 5 minutes.

[2] = Solubility in buffers and food grade solvents (Table 14); type: physicochemical
Method: Solubility of 3-(4-amino-2,2-dioxide-1H-benzo[c][1,2,6]thiadiazin-5-yloxy)-2′,2′-dimethyl-N-propylpropanamide
Various solutions of 3-(4-amino-2,2-dioxide-1H-benzo[c][1,2,6]thiadiazin-5-yloxy)-2′,2′-dimethyl-N-propylpropanamide 3-(4-amino-2,2-dioxide-1H-benzo[c][1,2,6]thiadiazin-5-yloxy)-2′,2′-dimethyl-N-propylpropanamide were prepared as indicated below.

OC[C@H]1O[C@@](CO)(O[C@H]2O[C@H](CO)[C@@H](O)[C@H](O)[C@H]2O)[C@@H](O)[C@@H]1O [Sucrose, sucrose]
Sample selected as more sweet by panelists, Total (External panelists): 9

CCCNC(=O)C(C)(C)COc1cccc2c1C(N)=NS(=O)(=O)N2 [3-(4-amino-2,2-dioxide-1H-benzo[c][1,2,6]thiadiazin-5-yloxy)-2′,2′-dimethyl-N-propylpropanamide]
Results (dissolution) ([1]; Ethanol, 1.0%, Ambient/over 30 minutes): Did not go into solution | Results (dissolution) ([1]; Glycerol, 0.1%, Ambient/over 30 minutes): Did not go into solution | Results (dissolution) ([1]; Lactic Acid, 1.0%, Ambient/over 30 minutes): Did not go into solution | Results (dissolution) ([1]; Neobee, 0.1%, 185° F./over 30 minutes): Did not go into solution | Results (dissolution) ([1]; Neobee, 0.1%, Ambient/over 30 minutes): Did not go into solution | Results (dissolution) ([1]; Olive Oil (Star Original), 0.1%, 150° F./over 30 minutes): Did not go into solution | Results (dissolution) ([1]; Olive Oil (Star Original), 0.1%, Ambient/over 30 minutes): Did not go into solution | Results (dissolution) ([1]; Phosphoric acid, 0.1%, Ambient/over 30 minutes): Did not go into solution | Results (dissolution) ([1]; Propylene Glycol, 0.3%, Ambient/over 30 minutes): Did not go into solution | Results (dissolution) ([1]; Propylene Glycol, 0.5%, Ambient/over 30 minutes): Did not go into solution | Results (dissolution) ([1]; Propylene Glycol, 1.0%, Ambient/over 30 minutes): Did not go into solution | Results (dissolution) ([1]; Triacetin, 0.1%, Ambient/over 30 minutes): Did not go into solution | concentration obtained ([1]; in ethanol): about 0.1 wt. % | concentration readily obtained ([1]; in propylene glycol): ≤ 0.5% | concentration obtained ([1]; in water): 10 ppm | solubility rate ([1]; pH 7.8, before sodium bicarbonate): 0.5% | solubility rate ([1]; sodium bicarbonate raises pH to 8.5): 1.0% | Sample selected as sweeter by panelists, Total (Panelists; Strawberry Yogurt with 4.5% Sucrose + 3 ppm (8.47 μM) compound chosen, vs 6.7% Sucrose, n = 72): 33 | Sweetness comparison (conclusion) (Panelists; Strawberry Yogurt with 66.6% Sucrose + 3 ppm (8.47 μM) compound vs 100% Sucrose, p>0.10): not significantly different in sweetness | Solubility (ppm) ([2]; Citric Acid Buffer, pH 2.8): 50 ppm | Solubility (ppm) ([2]; Citric Acid Buffer, pH 4.0): 50 ppm | Solubility (ppm) ([2]; Ethanol): 3757 ppm | Solubility (ppm) ([2]; Glycerol): 2800 ppm | Solubility (ppm) ([2]; Phosphate Buffer, pH 7.1): 602 ppm | Solubility (ppm) ([2]; Propylene Glycol (PG)): 6096 ppm | Solubility (ppm) ([2]; Triacetin): 567 ppm | solubility ([2]; aqueous buffer, Citric Acid Buffer, pH 4.0): 140 µM (≈ 49.6 µg/mL) | aqueous solubility (conclusion) ([2]; aqueous buffers pH 2.8-7.1): pH dependent, and lower solubility was found at low pH | solubility ([2]; citric acid buffer, pH 2.8, aqueous buffer): 140 µM (≈ 49.6 µg/mL) | solubility ([2]; ethanol, organic solvent or mixture): 10600 µM (≈ 3760 µg/mL) | solubility ([2]; glycerol, organic solvent or mixture): 7900 µM (≈ 2800 µg/mL) | solubility ([2]; organic solvent or mixture, Propylene Glycol (PG)): 17200 µM (≈ 6100 µg/mL) | solubility ([2]; phosphate buffer, pH 7.1, aqueous buffer): 1700 µM (≈ 603 µg/mL) | solubility ([2]; triacetin, organic solvent or mixture): 1600 µM (≈ 567 µg/mL)
